# Assay results from PMC4151236, “Early identification of hERG liability in drug discovery programs by automated patch clamp” (Frontiers in Pharmacology, 2014).
# Target: T1, hERG (Kv11.1) (Homo sapiens, UniProt Q12809)
# T1 construct: gene KCNH2
# Experiment: automated whole-cell patch clamp (QPatch), CHO hERG DUO cells, three-point dose-response
# Type: cell-based
# T1 sequence (Q12809 whole entry): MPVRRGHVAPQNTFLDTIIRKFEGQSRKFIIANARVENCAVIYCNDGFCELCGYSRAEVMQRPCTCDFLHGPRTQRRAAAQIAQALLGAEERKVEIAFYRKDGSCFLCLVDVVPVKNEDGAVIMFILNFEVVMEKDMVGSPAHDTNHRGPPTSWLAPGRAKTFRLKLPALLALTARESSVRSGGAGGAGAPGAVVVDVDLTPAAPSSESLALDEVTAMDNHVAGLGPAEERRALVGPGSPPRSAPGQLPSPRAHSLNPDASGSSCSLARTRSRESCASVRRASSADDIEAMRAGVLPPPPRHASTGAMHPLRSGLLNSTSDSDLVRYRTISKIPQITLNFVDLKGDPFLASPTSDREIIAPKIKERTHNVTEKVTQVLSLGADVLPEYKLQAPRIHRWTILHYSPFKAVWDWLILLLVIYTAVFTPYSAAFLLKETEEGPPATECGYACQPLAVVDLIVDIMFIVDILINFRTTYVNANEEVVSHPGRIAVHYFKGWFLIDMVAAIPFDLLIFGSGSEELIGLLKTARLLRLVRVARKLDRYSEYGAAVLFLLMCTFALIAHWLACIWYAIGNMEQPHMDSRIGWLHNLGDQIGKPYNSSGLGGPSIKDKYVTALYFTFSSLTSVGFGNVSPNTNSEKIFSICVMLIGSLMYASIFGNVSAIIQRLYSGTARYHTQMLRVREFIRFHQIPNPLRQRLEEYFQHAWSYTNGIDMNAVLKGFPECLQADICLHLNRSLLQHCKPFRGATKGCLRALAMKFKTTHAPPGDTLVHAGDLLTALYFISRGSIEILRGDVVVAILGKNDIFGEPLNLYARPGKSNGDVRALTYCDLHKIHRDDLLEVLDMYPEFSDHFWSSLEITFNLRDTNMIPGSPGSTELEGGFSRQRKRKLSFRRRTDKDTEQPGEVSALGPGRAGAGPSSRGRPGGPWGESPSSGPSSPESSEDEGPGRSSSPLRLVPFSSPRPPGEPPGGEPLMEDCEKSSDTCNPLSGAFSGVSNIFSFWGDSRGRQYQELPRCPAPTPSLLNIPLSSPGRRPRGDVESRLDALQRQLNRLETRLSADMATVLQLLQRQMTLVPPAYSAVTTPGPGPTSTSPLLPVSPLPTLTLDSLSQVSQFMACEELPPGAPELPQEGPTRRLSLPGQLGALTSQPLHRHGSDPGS
smiles,measurement,value
COc1cc(N)c(Cl)cc1C(=O)NC1CCN(CCCOc2ccc(F)cc2)CC1OC (stereo not shown) [Cisapride],"automated whole-cell patch clamp (QPatch), CHO hERG DUO cells, three-point dose-",superimposed to visualize the effect of increasing concentrations of the known hERG blocker Cisapride
